“Also recorded” adds a separate entry of the source. Where two headings read alike, the source gives them in different places.
How the values were obtained:
[1] = Flow cytometric calcium permeabilization of phosphatidylserine liposomes (Fluo-3/DiD); assay type: biochemical; conditions: for permeabilization of negatively charged (phosphatidylserine) liposomes to calcium: 400 nm liposomes, Fluo-3, flow cytometer
Experimental: (§1) The figure is a composite of data which was presented and analyzed in detail in (Zaretsky and Zaretskaia 2020, Zaretsky and Zaretskaia 2020). Liposomes (400 nm) were made of either phosphatidylserine (A-E, negatively charged lipid) or phosphatidylcholine (F-H, neutral lipid) with added DiD and were extruded in the Ca-free buffer containing 1 mM Fluo-3. After the addition of calcium, aliquots of peptide were added. Ionomycin was used as a positive control. Fluorescence of liposomes was analyzed using a flow cytometer. Each dot at the graph represent a single liposome registered in the flow. The intensity of DiD fluorescence characterizes the amount of membrane material in the liposome, while the fluorescence of Fluo-3 depends on the intraliposomal presence of calcium. […] The liposomes inside rectangle (area R1) are permeabilized, and the number of liposomes which were counted to be within the area is shown.
Liposomes with embedded ion-sensitive probe are used as a test system. Liposomes are extruded from phosphatidylserine containing membrane probe (i.e. DiD) in a calcium-free buffer containing ion-sensitive probe (i.e. Fluo-4) and volume probe (i.e. dextran-tetramethylrhodamin) or membrane probe (DiD). Extravesicular probes are cleared using either centrifugation, or dialysis. After the addition of calcium, the intravesicular calcium-sensing probe remain non-fluorescent because membranes are not permeable to calcium. If membrane channels are formed, calcium enters permeable liposomes, saturates the calcium-sensing dye, so the liposome becomes fluorescent. The number of fluorescent liposomes is an estimate of the number of channel-forming units in the solution.

[2] = test system: Aβ-induced apoptosis in the brain; conditions: cited from earlier work; for Aβ-induced apoptosis (TUNEL marker in the brain) / accumulation of Aβ immunoreactivity / amyloid: chronic Aβ infusion with simultaneous i.c.v. infusion of inhibitor
[3] = Flow cytometric calcium permeabilization of phosphatidylcholine liposomes (Fluo-3/DiD); assay type: biochemical; conditions: 400 nm liposomes, Fluo-3, flow cytometer
Experimental: as §1

[4] = cited from earlier work
amyloid channels = amyloid channels (Homo sapiens, UniProt P05067); conditions: cited from earlier work
Sequence of amyloid channels (P05067 672-711): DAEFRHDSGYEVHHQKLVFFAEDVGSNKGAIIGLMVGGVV

[5] = test system: 15 cells derived from pancreatic islets of Langerhans; conditions: cited from earlier work; for beta-amyloid-induced drop in cell viability: two cell lines, not specified
[6] = test system: rat primary cortical cultures; conditions: MTT, different concentrations of Aβ; cited from earlier work
[7] = test system: 15 cells derived from pancreatic islets of Langerhans; conditions: cited from earlier work; for amylin-induced drop in cell viability / cellular toxicity: pancreatic islet cell line
Aβ1-42 toxicity = conditions: Aβ1-42, Aksenov 1996; cited from earlier work
[8] = test system: Aβ1-42-induced drop of cell survival; conditions: Tizon 2010; cited from earlier work
[9] = MTT, listed as al-anti-chymotrypsin

Molecule: Aβ22-35: longer beta-amyloid fragment without positive charge, non-channel-forming (EDVGSNKGAIIGLM; Amyloid-beta protein 42; UniProt P05067 693-706, looked up, fragment)
- permeabilization of negatively charged (phosphatidylserine) liposomes to calcium [1]: does not create a noticeable number of channels; also recorded: does not permeabilize liposomes

Molecule: aprotinin
- apoptosis by the inhibitor itself (spontaneously occurring, TUNEL) ([2]; rat, in vivo): tends to decrease even spontaneously occurring apoptosis
- Aβ-induced apoptosis (TUNEL marker in the brain) ([2]; rats): prevented Aβ-induced apoptosis
- accumulation of Aβ immunoreactivity / amyloid ([2]; rats): did not exacerbate intracellular accumulation of amyloid

Molecule: Aβ1-42: full-length amyloid peptide
- permeabilization of negatively charged (phosphatidylserine) liposomes to calcium [1]: ineffective; also recorded: does not permeabilize liposomal membranes

Molecule: Aβ25-35: positively charged short beta-amyloid fragment, channel-forming (GSNKGAIIGLM; Amyloid-beta protein 42; UniProt P05067 696-706, looked up, fragment)
- permeabilization of negatively charged (phosphatidylserine) liposomes to calcium [1]: Membrane permeabilization occurs; also recorded: creates multiple liposomes permeable to calcium
- molecules of peptide out of which one channel is formed ([1]; model conditions): approximately 10^12 molecules
- permeabilization of neutral (phosphatidylcholine) liposomes to calcium [3]: does not permeabilize liposomes; also recorded: not permeabilized
- share of channels with high conductance ([4]; acidic pH (pH 5.0), 20 μM peptide): more than 30%
- conductance of channels formed (upper value) ([4]; planar lipid bilayers): up to 1 nS

Molecule: CC(=O)N[C@@H](CC(C)C)C(=O)N[C@@H](CC(C)C)C(=O)N[C@H](C=O)CCCNC(=N)N [leupeptin]
- Aβ-induced apoptosis (TUNEL marker in the brain) ([2]; rats): promoted apoptosis
- accumulation of Aβ immunoreactivity / amyloid ([2]; rats): accumulation of extracellular and intracellular Aβ immunoreactivity
- apoptosis by the inhibitor itself (spontaneously occurring, TUNEL) ([2]; rats, inhibitor without Aβ): tends to increase apoptosis

Molecule: C[C@H](CCC(=O)O)C[C@H](C)C[C@H](C)C(=O)/C=C(\O)[C@H](C)C[C@H](C)C/C=C/[C@@H](C)[C@@H](O)[C@@H](C)[C@@H](O)C[C@@H]1CC[C@@](C)([C@H]2CC[C@@](C)([C@@H](C)O)O2)O1 [ionomycin]
- permeabilization of negatively charged (phosphatidylserine) liposomes to calcium [1]: permeabilizes liposomes
- permeabilization of neutral (phosphatidylcholine) liposomes to calcium [3]: permeabilizes thousands of liposomes

Molecule: NC(CO)(CO)CO [tromethamine]
- blockade of smaller amyloid channels (<400 pS) (amyloid channels): effectively blocked
- blockade of super-high conductance giant channels (>1 nS) (amyloid channels): less effective

B1: α1-anti-chymotrypsin (protein, UniProt P01011 24-423, looked up)
Alpha-1-antichymotrypsin: HPNSPLDEENLTQENQDRGTHVDLGLASANVDFAFSLYKQLVLKAPDKNVIFSPLSISTALAFLSLGAHNTTLTEILKGLKFNLTETSEAEIHQSFQHLLRTLNQSSDELQLSMGNAMFVKEQLSLLDRFTEDAKRLYGSEAFATDFQDSAAAKKLINDYVKNGTRGKITDLIKDLDSQTMMVLVNYIFFKAKWEMPFDPQDTHQSRFYLSKKKWVMVPMMSLHHLTIPYFRDEELSCTVVELKYTGNASALFILPDQDKMEEVEAMLLPETLKRWRDSLEFREIGELYLPKFSISRDYNLNDILLQLGIEEAFTSKADLSGITGARNLAVSQVVHKAVLDVFEEGTEASAATAVKITLLSALVETRTIVRFNRPFLMIIVPTDTQNIFFMSKVTNPKQA
- optimal dose for inhibition of amyloid toxicity ([5]; 15 cells (IS cells), MTT, different concentrations of Aβ): 10^−7 M
- beta-amyloid-induced drop in cell viability ([5]; MTT): can protect against Aβ-induced drop in cell viability
- beta-amyloid-induced drop in cell viability [5, 9]: prevented
- effect of further increase of ACT concentration on protection against beta-amyloid ([5]; above optimal dose, bell-shaped dose-dependence): disappearance of protection; also recorded: bell-shaped dose-dependence of protection
- protection against beta-amyloid-induced drop in cell viability ([5]; in some conditions, cell line not specified (15 cells or rat primary cortical cultures), MTT): 100%
- optimal dose for inhibition of amyloid toxicity [6]: 10^−8 M
- amylin-induced drop in cell viability / cellular toxicity ([7]; MTT): prevent amylin-induced cellular toxicity
- amylin-induced drop in cell viability / cellular toxicity [7, 9]: prevented
- protection against amylin ([7]; MTT): < 100%
- effect of further increase of ACT concentration on protection against amylin ([7]; above optimal dose): significantly decreased the protective effect
- effect on fibril formation (Aβ1-42 toxicity): without affecting fibril formation

B2: cystatin C (protein, UniProt P01034 27-146, looked up)
Cystatin-C: SSPGKPPRLVGGPMDASVEEEGVRRALDFAVGEYNKASNDMYHSRALQVVRARKQIVAGVNYFLDVELGRTTCTKTQPNLDNCPFHDQPHLKRKAFCSFQIYAVPWQGTMTLSKSTCQDA
- drop of cell survival induced by Aβ1-42 [8]: prevented the drop of cell survival induced by Aβ1-42

Source: patent publication US20220249606A1, “Method of treatment of degenerative diseases caused by membrane channel-forming peptides fragments” (Zarbio, priority 2021, published 2022)
